Test results: US20140295425A1, “Diagnosis for Alzheimer's Disease” (The University of Birmingham, priority 2011, published 2014)

Test system: lymphocytes
Test: Two-colour microarray gene expression analysis of lymphocytes treated with rapamycin vs untreated
Format: cell-based, human
Details: rapamycin 100 ng/ml, 24 h
Method: Two-colour microarray based gene expression analysis (Agilent Technologies) was used to identify genes that were differentially expressed in lymphocytes treated with rapamycin compared to lymphocytes that were left untreated. The microarray used was the Agilent Whole Human Genome Microarray: 4×44K.
Two parallel lymphocyte cultures were set up in RPMI medium supplemented with 10% FCS at a concentration of 1×10^6 cells per 1 ml of culture media. Phytohaemaglutinin (PHA) was added to the cultures at a final concentration of 22 μg/ml to activate the lymphocytes. Cultures were incubated for 48 hours at 37° C. in a humidified atmosphere containing 5% CO2. After 48 hours culture, one culture was treated with 100 ng/ml rapamycin, while the other untreated culture was kept as a control. After a further 24 hours, the cells of each lymphocyte culture were harvested by centrifugation.
RNA was extracted from the lymphocyte pellets using TRI Reagent® in accordance with standard protocol. To ensure that there was no DNA contamination, the RNA was treated with DNase (Qiagen) according to the manufacturer's standard protocol. RNA quality was determined by RNA nano-chip analysis using an Agilent 2100 Bioanalyser, also according to standard protocol. The RNA quality of the samples ranged from 8-10 RNA Integrity Number (RIN), indicative of good quality RNA suitable for gene expression microarray.
200 ng of RNA was converted to cDNA with the low-input quick amplification labelling kit (Agilent, 5190-2305). Spike Mix A and B were prepared separately. For each, the spike mix was thawed and vortexed, incubated at 37° C. for 5 minutes, and diluted in the provided dilution buffer (see Table 3 for dilution protocol). 2 μl of diluted spike mix A and spike mix B were added to 200 ng of RNA in a 1.5 μl volume from the rapamycin-treated and untreated lymphocytes respectively. […] The samples were incubated at 65° C. for 10 minutes, and placed on ice for 5 minutes. 4.7 μl of the cDNA master mix was added per sample, and samples incubated at 40° C. for 2 hours; 70° C. for 15 minutes; and placed on ice for 5 minutes.
The low-input quick amplification labelling kit (Agilent, 5190-2305) was used to convert the cDNA to labelled cRNA. Spike Mix A samples were added to transcription master mix prepared with Cyanine 3-CTP (green), whereas Spike Mix B samples were added to transcription master mix prepared with Cyanine 5-CTP (red). 6 μl of the transcription master mix was added per 10 μl cDNA sample, and incubated at 40° C. for 2 hours.
The cRNA was purified by standard RNeasy mini column protocol (Qiagen). The cRNA was quantified with a nanodrop spectrophotometer on the Microarray setting. The yield and specific activity of the cRNA samples were calculated as follows: […]
825 ng of labelled cRNA was added to various fragmentation components as described in Table 7, incubated at 60° C. for 30 minutes, and cooled on ice for 1 minute. 55 μl of GEx Hybridisation buffer HI-RPM was subsequently added to stop fragmentation. The samples were mixed, centrifuged at 13,000 rotations per minute (RPM) for 1 minute, and placed on ice in preparation for microarray assembly. The microarray of choice was the 4×44K Agilent Whole Human Genome Microarray. A clean gasket slide was placed into the chamber base, 100 μl of sample dispensed per well, and array placed onto the gasket slide to facilitate hybridisation. The gasket and microarray slides were clamped together and incubated at 65° C. for 17 hours.
Following hybridisation, the microarrays were washed in various wash solutions as described in Table 8. To summarise, the microarrays were removed from the hybridisation assembly and carefully separated from the gasket slide whilst fully submersed in wash buffer 1. Slides were washed for 1 minute, transferred to wash buffer 2 at 37° C. for 1 minute, and washed in acetonitrile for 10 seconds. The final wash was in stabilisation and drying solution for 30 seconds. […]

With `CO[C@H]1C[C@@H]2CC[C@@H](C)[C@@](O)(O2)C(=O)C(=O)N2CCCC[C@H]2C(=O)O[C@H]([C@H](C)C[C@@H]2CC[C@@H](O)[C@H](OC)C2)CC(=O)[C@H](C)/C=C(\C)[C@@H](O)[C@@H](OC)C(=O)[C@H](C)C[C@H](C)/C=C/C=C/C=C/1C` [rapamycin] the Fold change (gene ACPP (up-regulated)) was 1.769, the Fold change (gene ACSL6 (down-regulated)) was −1.795 and the Fold change (gene ACSS1 (up-regulated)) was 1.212. The Fold change (gene ADAMTS15 (up-regulated)) was 1.095, the Fold change (gene ADAMTS16 (down-regulated)) was −1.497 and the Fold change (gene ADH6 (up-regulated)) was 1.177. It also gave a Fold change (gene ADSSL1 (up-regulated)) of 0.8544, a Fold change (gene ALDH1A3 (up-regulated)) of 1.792 and a Fold change (gene AMY1C, symbol AMY1A (includes others) (up-regulated)) of 0.8998. For the same compound, the Fold change (gene AP1S1 (down-regulated)) was −1.488, the Fold change (gene B3GALT4 (up-regulated)) was 1.175 and the Fold change (gene B4GALT6 (up-regulated)) was 1.07. It also gave a Fold change (gene BMP7 (up-regulated)) of 1.123, a Fold change (gene CA6 (up-regulated)) of 1.029 and a Fold change (gene CCL1 (up-regulated)) of 1.135. For the same compound, the Fold change (gene CCL2 (down-regulated)) was −2.661, the Fold change (gene CCL8 (down-regulated)) was −2.62 and the Fold change (gene CCL26 (up-regulated)) was 1.662. It also gave a Fold change (gene COL8A2 (down-regulated)) of −1.411, a Fold change (gene CROT (down-regulated)) of −2.4978 and a Fold change (gene CTSF (up-regulated)) of 1.61. It also gave a Fold change (gene CYP3A5 (up-regulated)) of 1.214, a Fold change (gene CYP4F3 (up-regulated)) of 1.395 and a Fold change (gene CYP4V2 (up-regulated)) of 0.8253. For the same compound, the Fold change (gene CYP4X1 (up-regulated)) was 1.062, the Fold change (gene DCLK1 (up-regulated)) was 1.437 and the Fold change (gene DHRS3 (up-regulated)) was 0.8206. The Fold change (gene DTD1 (up-regulated)) was 1.511, the Fold change (gene DUSP13 (up-regulated)) was 1.045 and the Fold change (gene DYNC2LI1 (down-regulated)) was −1.902. It also gave a Fold change (gene DZIP3 (up-regulated)) of 0.8533, a Fold change (gene EGLN3 (down-regulated)) of −1.959 and a Fold change (gene F9 (up-regulated)) of 1.605. It also gave a Fold change (gene FGF2 (down-regulated)) of −2.241, a Fold change (gene FGF18 (down-regulated)) of −1.255 and a Fold change (gene FJX1 (down-regulated)) of −2.328. For the same compound, the Fold change (gene FUT9 (down-regulated)) was −1.648, the Fold change (gene GBP3 (up-regulated)) was 0.8462 and the Fold change (gene GDA (up-regulated)) was 1.596. The Fold change (gene GNAL (up-regulated)) was 0.996, the Fold change (gene GPAM (down-regulated)) was −1.231 and the Fold change (gene GPX6 (up-regulated)) was 1.702. For the same compound, the Fold change (gene HCK (down-regulated)) was −1.403, the Fold change (gene HSD17B13 (up-regulated)) was 1.51 and the Fold change (gene IGBP1 (up-regulated)) was 0.8038. The Fold change (gene IGF2 (up-regulated)) was 1.185, the Fold change (gene IL1B (up-regulated)) was 1.136 and the Fold change (gene IL1RN (up-regulated)) was 1.004. It also gave a Fold change (gene IL2 (down-regulated)) of −1.407, a Fold change (gene IL3 (down-regulated)) of −2.123 and a Fold change (gene IL6 (down-regulated)) of −1.3333. The Fold change (gene IL10 (down-regulated)) was −2.727, the Fold change (gene INPP5E (down-regulated)) was −1.4981 and the Fold change (gene INPP5K (up-regulated)) was 0.7753. It also gave a Fold change (gene JAK1 (up-regulated)) of 0.8726, a Fold change (gene LEFTY1 (up-regulated)) of 1.067 and a Fold change (gene LEP (up-regulated)) of 1.281. It also gave a Fold change (gene LIPF (up-regulated)) of 1.349, a Fold change (gene LOXL3 (down-regulated)) of −1.3654 and a Fold change (gene MMP9 (up-regulated)) of 1.152. It also gave a Fold change (gene MOXD1 (down-regulated)) of −2.421, a Fold change (gene MPP4 (up-regulated)) of 0.8611 and a Fold change (gene MTHFR (up-regulated)) of 0.8153. For the same compound, the Fold change (gene OGN (up-regulated)) was 1.567, the Fold change (gene PAOX (up-regulated)) was 0.8572 and the Fold change (gene PDE1A (up-regulated)) was 1.31. The Fold change (gene PDE4C (up-regulated)) was 1.017, the Fold change (gene PDK4 (up-regulated)) was 0.8187 and the Fold change (gene PIM1 (up-regulated)) was 1.101. For the same compound, the Fold change (gene PITPNM2 (up-regulated)) was 0.8702, the Fold change (gene PLAT (up-regulated)) was 0.8897 and the Fold change (gene PLB1 (up-regulated)) was 1.566. It also gave a Fold change (gene PLD1 (up-regulated)) of 0.9334, a Fold change (gene PLGLB1, symbol PLGLB1/PLGLB2 (up-regulated)) of 0.9441 and a Fold change (gene PON3 (up-regulated)) of 1.013. It also gave a Fold change (gene PRKG1 (down-regulated)) of −1.116, a Fold change (gene PRODH2 (up-regulated)) of 1.716 and a Fold change (gene PRSS23 (up-regulated)) of 1.012. It also gave a Fold change (gene PTGS2 (down-regulated)) of −1.2871, a Fold change (gene PYCR1 (down-regulated)) of −1.294 and a Fold change (gene RAB37 (up-regulated)) of 0.9052. The Fold change (gene RAB39 (up-regulated)) was 0.8095, the Fold change (gene RND3 (up-regulated)) was 0.9124 and the Fold change (gene RPS6KB1 (up-regulated)) was 1.481. For the same compound, the Fold change (gene RRAD (down-regulated)) was −1.632, the Fold change (gene SGTA (down-regulated)) was −1.403 and the Fold change (gene SPP1 (up-regulated)) was 1.471. It also gave a Fold change (gene SPRED2 (up-regulated)) of 0.825, a Fold change (gene ST3GAL6 (up-regulated)) of 1.175 and a Fold change (gene ST6GALNAC2 (down-regulated)) of −1.242. For the same compound, the Fold change (gene STK31 (up-regulated)) was 1.092, the Fold change (gene STS (up-regulated)) was 0.8677 and the Fold change (gene TAC1 (down-regulated)) was −1.262. For the same compound, the Fold change (gene TDH (up-regulated)) was 1.414, the Fold change (gene THBS1 (down-regulated)) was −1.359 and the Fold change (gene TRIB1 (up-regulated)) was 1.07. For the same compound, the Fold change (gene UBE2M (down-regulated)) was −1.504, the Fold change (gene ULK2 (up-regulated)) was 1.069 and the Fold change (gene WWP2 (up-regulated)) was 0.9105. The Fold change (gene ZADH2 (up-regulated)) was 1.005.
